Data reported in US8809627B2, “Plant isoflavone and isoflavanone O-methyltransferase genes” (The Samuel Roberts Noble Foundation, Inc., priority 2006, dated 2014).

What was measured:
MtIOMT2 = assay: OMT assays with purified recombinant MtIOMT2 (relative activity; HPLC/MS of products); type: biochemical, Medicago truncatula; settings: for Relative activity, MtIOMT2: 50 μM S-adenosyl methionine, 100 μM acceptor substrate, most converted substrate (daidzein) = 100%
From the text: (§1) Cloning of MtIOMT5 (corresponding to TC 100926, TIGR MtGI v.8) was as described previously (Liu et al., 2005). To obtain a full-length cDNA for MtIOMT2, specific primers designed based upon the M. truncatula genomic sequence were used to amplify the MtIOMT2 coding sequence from M. truncatula root cDNA. The amplified product was cloned into the pGEM®-T easy vector (Promega, Madison Wis.) and sequenced to confirm its identity. MtIOMTs were cloned into the pET28a vector (EMD Biosciences, Inc., San Diego, Calif.) using PCR-based amplification with primers designed to introduce EcoRI and XhoI restriction sites; BamHI and XhoI sites were used for cloning MtIOMT6 due to the presence of an internal EcoRI site in this particular cDNA. Because the EST for MtIOMT8 was missing a start codon, the primer designed to clone MtIOMT8 into pET28a contained an additional 2-nucleotide insertion to generate an ATG start site. All MtIOMTs were expressed as translational fusions to an N-terminal His-tag. Expression of MtIOMTs in E. coli BL21(DE3) and purification by Ni^2+-NTA chromatography were as described (Zubieta et al., 2001). Proteins were dialyzed against 20 mM Tris pH 8.0, 100 mM NaCl, 10% (v/v) glycerol, and 14 mM β-mercaptoethanol. Protein concentration was determined by Bradford assay using BSA as a standard (Bradford, 1976).
(§2) Reactions (200 μl) were performed in 0.1 M potassium phosphate, pH 7.4, 10% (w/v) sucrose, 14 mM β-mercaptoethanol with 10 μM protein, 0.5 mM S-adenosyl-L-methionine, and 80 μM phenolic substrates. All substrates were purchased from Indofine (Hillsborough, N.J.) except 6,7-dihydroxy-4′-methoxyisoflavone, dihydrodaidzein, and vestitol, which were purchased from Apin (Oxfordshire, UK). […] OMT assays were incubated at 30° C. for 2 h and extracted with ethyl acetate. Ethyl acetate extracts were dried under N2 and the resultant material was resuspended in 50-100 μl of methanol. Samples were analyzed on an Agilent 1100 HPLC, equipped with a quaternary pump (model #G1311A), a degasser (model #G1322A), an autosampler (model #G1313A), and a diode array detector (model #G1315A). Samples of 20 μl were applied to an ODS2 reverse-phase column (5 μm particle size, 4.6×250 mm) and eluted in 1% (v/v) phosphoric acid with an increasing gradient of acetonitrile (0-5 min, 25%; 5-35 min, 25-50%; 35-39 min, 50-100%) at a flow rate of 1 ml/min. To resolve the 4′-O-methylated and 7-O-methylated products of genistein, samples were applied to a Phenomenex SYNERGI Polar-RP 80 Å column (4 μm particle size, 4.6×250 mm) and eluted in water with an increasing gradient of acetonitrile (0-5 min, 20%; 5-17 min, 20-38%; 17-33 min, 38%; 33-45 min, 38-56%; 45-46 min, 56-100%) at a flow rate of 1 ml/min. Chiral chromatography was performed as described (Liu et al., 2005).
(§3) For determination of specific activities, reactions (100 μl) were performed in 0.1 M potassium phosphate, pH 7.4, 10% (w/v) sucrose, 14 mM β-mercaptoethanol with 0.2-μg protein, 50 μM S-adenosyl-L-methionine (0.025 μCi ^14C-SAM per reaction), and 100 μM substrate. Reactions were incubated at 30° C. for 15-25 min and stopped by addition of 4 μl of 1N HCl. Products were extracted into 500 μl of ethyl acetate and 400 μl was used for liquid scintillation counting.
(§4) An HP 1100 series II LC system (Hewlett-Packard, Palo Alto, Calif.) with a photodiode array detector was coupled to a Bruker Esquire ion-trap mass spectrometer (ITMS) equipped with an electrospray ionization source. A reverse phase, C18, 5 μm, 4.6×250 mm column (J. T. Baker, Phillipsburg, N.J.) was used for separations. The mobile phase consisted of 0.1% (v/v) acetic acid using linear gradients of 5-90% acetonitrile (v/v) in 70 min. The flow rate was 0.8 ml/min, and the temperature of the column was kept at 28° C. Both positive- and negative-ion mass spectra were acquired. […]

MtIOMT4 = assay: OMT assays with purified recombinant MtIOMT4 (relative activity; HPLC of products); type: biochemical, Medicago truncatula; settings: for Relative activity, MtIOMT4: 50 μM S-adenosyl methionine, 100 μM acceptor substrate, most converted substrate = 100%
From the text: as §1, §2
For determination of specific activities, reactions (100 μl) were performed in 0.1 M potassium phosphate, pH 7.4, 10% (w/v) sucrose, 14 mM β-mercaptoethanol with 0.2-μg protein, 50 μM S-adenosyl-L-methionine (0.025 μCi ^14C-SAM per reaction), and 100 μM substrate. Reactions were incubated at 30° C. for 15-25 min and stopped by addition of 4 μl of 1N HCl. Products were extracted into 500 μl of ethyl acetate and 400 μl was used for liquid scintillation counting. […]

MtIOMT5 = biological target: T1, MtIOMT5 (Medicago truncatula, UniProt Q29U70); assay: OMT assays with purified recombinant MtIOMT5 (relative activity; HPLC/MS of products); type: biochemical; settings: for Relative activity, MtIOMT5: 50 μM S-adenosyl methionine, 100 μM acceptor substrate, most converted substrate = 100%; for Position of methylation / reaction products, MtIOMT5: HPLC against standards, tandem MS
T1 construct: His-tag (N); made in house; host or cells: E. coli BL21(DE3)
T1 sequence (Q29U70 1-364): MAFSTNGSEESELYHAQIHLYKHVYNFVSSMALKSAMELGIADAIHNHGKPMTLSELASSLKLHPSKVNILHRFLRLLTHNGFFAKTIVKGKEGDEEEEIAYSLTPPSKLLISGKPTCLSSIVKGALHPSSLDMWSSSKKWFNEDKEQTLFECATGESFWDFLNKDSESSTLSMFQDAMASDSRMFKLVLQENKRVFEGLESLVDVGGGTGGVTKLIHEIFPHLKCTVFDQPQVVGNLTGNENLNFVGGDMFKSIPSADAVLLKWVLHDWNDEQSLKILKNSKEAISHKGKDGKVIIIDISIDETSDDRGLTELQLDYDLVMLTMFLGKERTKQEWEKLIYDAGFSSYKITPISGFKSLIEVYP
From the text: as §1, §2, §3, §4

MtIOMT3 = assay: OMT assays with purified recombinant MtIOMT3 (relative activity; HPLC/MS of products); type: biochemical, Medicago truncatula; settings: 50 μM S-adenosyl methionine, 100 μM acceptor substrate; most converted substrate = 100%
From the text: as §1, §2, §3, §4

MtIOMT7 = assay: OMT assays with purified recombinant MtIOMT7 (relative activity; HPLC/MS of products); type: biochemical, Medicago truncatula; settings: for Relative activity, MtIOMT7: 50 μM S-adenosyl methionine, 100 μM acceptor substrate, most converted substrate = 100%
From the text: as §1, §2, §3
An HP 1100 series II LC system (Hewlett-Packard, Palo Alto, Calif.) with a photodiode array detector was coupled to a Bruker Esquire ion-trap mass spectrometer (ITMS) equipped with an electrospray ionization source. A reverse phase, C18, 5 μm, 4.6×250 mm column (J. T. Baker, Phillipsburg, N.J.) was used for separations. The mobile phase consisted of 0.1% (v/v) acetic acid using linear gradients of 5-90% acetonitrile (v/v) in 70 min. The flow rate was 0.8 ml/min, and the temperature of the column was kept at 28° C. Both positive- and negative-ion mass spectra were acquired.

MtIOMT6 = assay: OMT assays with purified recombinant MtIOMT6 (relative activity; HPLC/MS of products); type: biochemical, Medicago truncatula; settings: 50 μM S-adenosyl methionine, 100 μM acceptor substrate; most converted substrate = 100%
From the text: as §1, §2, §3, §4

Row | SMILES | Relative activity, MtIOMT2 (MtIOMT2) | Relative activity, MtIOMT4 (MtIOMT4) [%] | Relative activity, MtIOMT5 (MtIOMT5) | Relative activity, MtIOMT3 (MtIOMT3) | Relative activity, MtIOMT7 (MtIOMT7) | Relative activity, MtIOMT6 (MtIOMT6) [%] | Efficiency of methylation by MtIOMT2 (in words) (MtIOMT2) | Activity of MtIOMT4 (in words) (MtIOMT4) | Position of methylation / reaction products, MtIOMT5 (MtIOMT5) | Amount of substrate methylated after 2 h (MtIOMT7; MtIOMT7, 2 h)
1 | O=c1c(-c2ccc(O)cc2)coc2cc(O)c(O)cc12 [6,7,4′-trihydroxyisoflavone] | 35.3% | 0 | 0% | 100% | 0% | 0 | – | – | – | –
2 | COc1ccc(-c2coc3cc(O)c(O)cc3c2=O)cc1 [6,7-dihydroxy,4′-methoxyisoflavone] | 0% | 0 | 0% | 0% | 0% | 0 | – | – | – | –
3 | O=c1c(-c2ccc(O)c(O)c2)coc2cc(O)ccc12 [7,3′,4′-trihydroxyisoflavone] | 43.1% | 0 | 0% | 52.9% | ≦1% | 0 | – | – | – | –
4 | O=c1cc(-c2ccc(O)cc2)oc2cc(O)ccc12 [7,4′-dihydroxyflavone] | ≦1% | 0 | 0% | 0% | 0% | 0 | – | – | – | –
5 | O=c1cc(-c2ccc(O)cc2)oc2cc(O)cc(O)c12 [Apigenin] | 0% | 0 | 0% | 0% | 0% | 0 | – | – | – | –
6 | O=c1oc2cc(O)ccc2c2oc3cc(O)ccc3c12 [Coumestrol] | ≦1% | 100 | 0% | 0% | 1.5% | 0 | low efficiency | low level, trace activity | – | –
7 | O=c1c(-c2ccc(O)cc2)coc2cc(O)ccc12 [Daidzein] | 100% | 0 | 0% | ≦1% | 0% | 0 | – | – | – | –
8 | O=C1c2ccc(O)cc2OCC1c1ccc(O)cc1 (centres unmarked) [Dihydrodaidzein] | 70.1% | 0 | 7.9% | 49.4% | 84.1% | 100 | – | – | 4′-methoxy, 7-methoxy, and 4′,7-dimethoxy products | –
9 | O=c1c(-c2ccc(O)cc2)coc2cc(O)cc(O)c12 [Genistein] | 61% | 0 | 0% | 73.7% | 0% | 0 | – | – | – | –
10 | COc1cc2c(=O)c(-c3ccc(O)cc3)coc2cc1O [Glycitein] | 38.9% | 0 | 0% | 51.6% | ≦1% | 0 | – | – | – | –
11 | O=c1c(O)c(-c2cc(O)c(O)c(O)c2)oc2cc(O)cc(O)c12 [Myricetin] | 0% | 0 | 0% | 0% | 0% | 0 | – | – | – | –
12 | O=C1C[C@@H](c2ccc(O)cc2)Oc2cc(O)cc(O)c21 [Naringenin] | ≦1% | 0 | ≦1% | 0% | 100% | 0 | low efficiency | – | methylated on the 4′-positions | Almost all
13 | COc1ccc(C2COc3cc(O)ccc3C2)c(O)c1 (centres unmarked) [Vestitol] | ≦1% | 43.8 | ≦1% | 0% | 3.4% | 66.2 | low efficiency | low level, trace activity | – | –
